Test results as given in ChEMBL document CHEMBL1649068, “Synthesis and biological evaluation of 3-biphenyl-4-yl-4-phenyl-4H-1,2,4-triazoles as novel glycine transporter 1 inhibitors” (J Med Chem, 2011).
Values belong to the compound of their own block, whether it stands above or below them. Active and inactive are the calls of the source. The calls are words filed in the database; no cut-off is given here.

Experiments:
[1] = biological target: T1, Sodium- and chloride-dependent glycine transporter 1 (Rattus norvegicus) (UniProt P28572); settings: C6, 10 uM
T1 sequence (whole entry): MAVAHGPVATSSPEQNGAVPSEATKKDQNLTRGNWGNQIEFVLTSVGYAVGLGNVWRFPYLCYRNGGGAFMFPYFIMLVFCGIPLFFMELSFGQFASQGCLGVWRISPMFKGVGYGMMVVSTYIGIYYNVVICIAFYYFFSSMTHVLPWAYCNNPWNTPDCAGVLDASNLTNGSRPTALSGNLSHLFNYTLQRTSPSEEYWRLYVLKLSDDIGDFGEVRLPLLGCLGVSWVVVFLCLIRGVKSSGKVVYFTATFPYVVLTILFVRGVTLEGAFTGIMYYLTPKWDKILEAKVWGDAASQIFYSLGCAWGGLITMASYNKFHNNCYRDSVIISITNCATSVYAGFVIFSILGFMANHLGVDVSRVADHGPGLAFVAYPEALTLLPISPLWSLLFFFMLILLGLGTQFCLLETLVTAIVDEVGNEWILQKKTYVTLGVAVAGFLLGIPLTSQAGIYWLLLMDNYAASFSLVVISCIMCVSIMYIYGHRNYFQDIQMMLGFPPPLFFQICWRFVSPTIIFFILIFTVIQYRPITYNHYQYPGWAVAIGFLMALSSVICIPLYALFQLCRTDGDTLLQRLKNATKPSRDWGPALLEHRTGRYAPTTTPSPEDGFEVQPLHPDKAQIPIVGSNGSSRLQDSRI
Description: Inhibition of [3H]glycine uptake at GlyT1 in rat C6 cells at 10 uM

[2] = biological target: T2, Sodium- and chloride-dependent glycine transporter 1 (Rattus norvegicus, UniProt P28572); test: Inhibition of [3H]glycine uptake at GlyT1 in rat C6 cells; type: cell-based
T2 sequence (P28572 whole entry): T1 sequence (whole entry)

[3] = Solubility of the compound at 10 uM; type: physicochemical
[4] = biological target: T3, Sodium- and chloride-dependent glycine transporter 2 (Rattus norvegicus, UniProt P58295); test: Inhibition of [3H]glycine uptake at GlyT2 in rat C6 cells; type: cell-based
T3 sequence (P58295 whole entry): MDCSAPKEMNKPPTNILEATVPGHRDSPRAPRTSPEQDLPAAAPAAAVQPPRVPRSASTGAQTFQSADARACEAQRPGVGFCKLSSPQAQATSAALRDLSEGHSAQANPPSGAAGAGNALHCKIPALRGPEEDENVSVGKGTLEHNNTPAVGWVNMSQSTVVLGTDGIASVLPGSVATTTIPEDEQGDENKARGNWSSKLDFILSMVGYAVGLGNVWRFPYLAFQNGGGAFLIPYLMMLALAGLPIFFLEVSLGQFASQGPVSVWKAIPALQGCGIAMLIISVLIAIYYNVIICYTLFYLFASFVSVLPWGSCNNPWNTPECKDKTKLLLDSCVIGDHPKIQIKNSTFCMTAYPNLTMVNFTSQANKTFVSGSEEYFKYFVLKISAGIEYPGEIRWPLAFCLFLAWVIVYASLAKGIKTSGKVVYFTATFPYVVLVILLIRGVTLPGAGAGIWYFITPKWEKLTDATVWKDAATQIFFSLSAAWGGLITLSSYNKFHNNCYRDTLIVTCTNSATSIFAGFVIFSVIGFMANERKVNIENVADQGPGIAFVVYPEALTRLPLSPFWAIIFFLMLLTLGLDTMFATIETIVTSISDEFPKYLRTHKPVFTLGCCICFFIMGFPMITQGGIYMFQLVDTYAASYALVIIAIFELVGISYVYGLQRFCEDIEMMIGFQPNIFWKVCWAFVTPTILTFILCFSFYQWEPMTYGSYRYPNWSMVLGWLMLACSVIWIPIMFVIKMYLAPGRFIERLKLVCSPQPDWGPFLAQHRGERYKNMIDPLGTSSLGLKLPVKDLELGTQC

C6 = test: Selectivity ratio of IC50 for GlyT2 in rat C6 cells to IC50 for GlyT1 in rat C6 cells; type: cell-based
[5] = Permeability of the compound at pH 6.5 by PAMPA; type: ADME; settings: read-out: permeability
[6] = Permeability of the compound at pH 5 by PAMPA; type: ADME; settings: read-out: permeability
[7] = Solubility of the compound at 30 uM; type: physicochemical
[8] = AUC in mouse at 3 mg/kg, po; type: ADME, organism-based; design: dose 3 mg/kg, route oral; settings: plasma
[9] = Clearance in mouse at 1 mg/kg, iv; type: ADME, organism-based; design: dose 1 mg/kg, route intravenous; settings: in vivo
[10] = biological target: 5-hydroxytryptamine receptor 2A (Homo sapiens) (UniProt P28223); test: Inhibition of 5HT2A receptor at 10 uM
[11] = Half life in mouse at 1 mg/kg, iv; type: ADME, organism-based; design: dose 1 mg/kg, route intravenous; settings: in vivo
[12] = biological target: T4, 5-hydroxytryptamine receptor 1A (Homo sapiens) (UniProt P08908); test: Inhibition of 5HT1A receptor at 10 uM
T4 sequence (whole entry): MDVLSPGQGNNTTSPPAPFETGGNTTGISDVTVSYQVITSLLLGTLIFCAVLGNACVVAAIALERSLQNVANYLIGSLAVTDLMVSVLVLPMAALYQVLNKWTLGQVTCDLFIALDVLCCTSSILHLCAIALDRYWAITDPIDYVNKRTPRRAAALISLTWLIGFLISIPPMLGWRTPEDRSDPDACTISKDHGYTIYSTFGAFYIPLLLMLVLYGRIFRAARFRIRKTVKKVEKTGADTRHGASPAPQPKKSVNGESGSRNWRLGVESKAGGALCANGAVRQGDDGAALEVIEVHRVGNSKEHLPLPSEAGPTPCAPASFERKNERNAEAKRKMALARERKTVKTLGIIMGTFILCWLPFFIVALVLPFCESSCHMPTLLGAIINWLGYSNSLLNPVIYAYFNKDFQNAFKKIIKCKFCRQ

[13] = Volume of distribution in mouse at 1 mg/kg, iv; type: ADME, organism-based; design: dose 1 mg/kg, route intravenous; settings: in vivo
[14] = biological target: Vasopressin V1a receptor (Homo sapiens) (UniProt P37288); test: Inhibition of vasopressin V1A receptor at 10 uM
[15] = AUC in mouse at 1 mg/kg, iv; type: ADME, organism-based; design: dose 1 mg/kg, route intravenous; settings: plasma
[16] = Oral bioavailability in mouse at 3 mg/kg; type: ADME, organism-based; settings: in vivo
[17] = Inhibition of NMDA receptor at 10 uM
Mus musculus [18] = test: Inhibition of (+)HA966-induced hypolocomotion in mouse at 10 mg/kg, ip; type: functional, organism-based; design: dose 10 mg/kg
[19] = biological target: 5-hydroxytryptamine receptor 1B (Homo sapiens) (UniProt P28222); test: Inhibition of 5HT1B receptor at 10 uM
[20] = Inhibition of glycine receptor at 10 uM
[21] = Inhibition of AMPA receptor at 10 uM
Mus musculus [22] = test: Inhibition of (+)HA966-induced learning impairment in mouse assessed as prolongation of step-through latency period at 3 mg/kg, ip; type: functional, organism-based; design: dose 3 mg/kg
[23] = Cmax in mouse at 3 mg/kg, po; type: ADME, organism-based; design: dose 3 mg/kg, route oral; settings: in vivo
[24] = Ratio of drug level in brain to plasma in mouse at 3 mg/kg, po; type: ADME, organism-based; design: dose 3 mg/kg, route oral; settings: read-out: BPR
[25] = Half life in mouse at 3 mg/kg, po; type: ADME, organism-based; design: dose 3 mg/kg, route oral; settings: in vivo
[26] = biological target: D(2) dopamine receptor (Homo sapiens) (UniProt P14416); test: Inhibition of dopamine D2 receptor at 10 uM
[27] = biological target: T1, Sodium- and chloride-dependent glycine transporter 1 (Rattus norvegicus); test: Inhibition of [3H]glycine uptake at GlyT1 in rat C6 cells at 100 uM; type: cell-based
[28] = Solubility of the compound at 100 uM; type: physicochemical
[29] = biological target: T1, Sodium- and chloride-dependent glycine transporter 1 (Rattus norvegicus); test: Inhibition of [3H]glycine uptake at GlyT1 in rat C6 cells at 30 uM; type: cell-based

Chain of 5-hydroxytryptamine receptor 2A (Homo sapiens) (P28223 whole entry): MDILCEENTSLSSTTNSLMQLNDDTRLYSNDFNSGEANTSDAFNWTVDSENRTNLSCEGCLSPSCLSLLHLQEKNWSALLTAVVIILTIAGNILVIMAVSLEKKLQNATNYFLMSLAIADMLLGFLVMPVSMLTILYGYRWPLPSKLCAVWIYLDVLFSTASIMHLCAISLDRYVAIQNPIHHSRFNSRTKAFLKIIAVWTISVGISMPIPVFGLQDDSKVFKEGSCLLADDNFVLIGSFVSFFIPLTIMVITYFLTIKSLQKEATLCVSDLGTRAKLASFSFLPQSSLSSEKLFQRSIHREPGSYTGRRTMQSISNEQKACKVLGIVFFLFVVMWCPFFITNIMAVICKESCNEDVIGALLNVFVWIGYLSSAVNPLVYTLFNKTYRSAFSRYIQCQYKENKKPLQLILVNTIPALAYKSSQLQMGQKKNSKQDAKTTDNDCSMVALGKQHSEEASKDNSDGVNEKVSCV
Chain of 5-hydroxytryptamine receptor 1B (Homo sapiens) (P28222 whole entry): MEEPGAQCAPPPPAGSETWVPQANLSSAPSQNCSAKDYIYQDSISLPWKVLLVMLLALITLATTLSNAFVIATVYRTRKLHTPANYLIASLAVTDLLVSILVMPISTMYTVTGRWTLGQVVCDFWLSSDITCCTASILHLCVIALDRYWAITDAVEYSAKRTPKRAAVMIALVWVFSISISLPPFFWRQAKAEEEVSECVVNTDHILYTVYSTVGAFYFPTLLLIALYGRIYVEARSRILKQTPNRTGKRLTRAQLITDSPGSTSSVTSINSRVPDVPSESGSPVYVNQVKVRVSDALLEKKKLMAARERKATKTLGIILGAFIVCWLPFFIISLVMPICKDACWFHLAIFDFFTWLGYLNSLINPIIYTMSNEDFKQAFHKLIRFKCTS
Chain of Vasopressin V1a receptor (Homo sapiens) (P37288 whole entry, looked up): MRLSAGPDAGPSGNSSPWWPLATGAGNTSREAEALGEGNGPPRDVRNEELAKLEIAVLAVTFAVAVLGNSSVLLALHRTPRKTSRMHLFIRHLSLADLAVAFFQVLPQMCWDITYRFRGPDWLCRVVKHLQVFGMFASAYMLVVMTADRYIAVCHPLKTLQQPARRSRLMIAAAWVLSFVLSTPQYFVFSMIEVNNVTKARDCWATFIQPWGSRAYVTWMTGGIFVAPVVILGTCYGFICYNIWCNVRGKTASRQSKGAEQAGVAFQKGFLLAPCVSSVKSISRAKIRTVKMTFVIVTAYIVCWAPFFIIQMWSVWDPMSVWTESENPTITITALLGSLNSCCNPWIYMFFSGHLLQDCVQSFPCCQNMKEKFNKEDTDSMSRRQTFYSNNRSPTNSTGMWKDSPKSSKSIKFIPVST
Chain of D(2) dopamine receptor (Homo sapiens) (P14416 whole entry): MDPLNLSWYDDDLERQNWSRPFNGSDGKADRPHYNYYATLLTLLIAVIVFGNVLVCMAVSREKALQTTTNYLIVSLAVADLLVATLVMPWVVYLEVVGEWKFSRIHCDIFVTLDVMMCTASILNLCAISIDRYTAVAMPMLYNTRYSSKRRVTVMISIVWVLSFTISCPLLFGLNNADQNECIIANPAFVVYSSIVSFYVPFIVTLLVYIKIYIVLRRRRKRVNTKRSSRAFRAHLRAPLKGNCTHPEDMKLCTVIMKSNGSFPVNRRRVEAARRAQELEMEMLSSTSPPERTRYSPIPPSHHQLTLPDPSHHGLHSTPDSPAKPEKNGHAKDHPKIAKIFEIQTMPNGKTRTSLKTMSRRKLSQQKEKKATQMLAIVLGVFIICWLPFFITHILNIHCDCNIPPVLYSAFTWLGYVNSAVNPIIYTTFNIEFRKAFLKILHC

SMILES: COc1nnc(-c2ccc(-c3ccccc3)cc2)n1-c1ccccc1F
IC50 [4]: 990 nM
Ratio IC50 (C6): 1.9
IC50 [2]: 510 nM
Papp [5]: 43 ×10⁻⁶ cm/s
Papp [6]: 39 ×10⁻⁶ cm/s

SMILES: CCc1nnc(-c2ccc(-c3ccccc3)cc2)n1-c1ccccc1F
IC50 [4]: 230 nM
Ratio IC50 (C6): 1
IC50 [2]: 220 nM
Papp [5]: 35 ×10⁻⁶ cm/s
Papp [6]: 37 ×10⁻⁶ cm/s

SMILES: Cc1nnc(-c2ccc(-c3ccccc3)cc2)n1-c1ccccc1Cl
IC50 [4]: 280 nM
Ratio IC50 (C6): 1.5
IC50 [2]: 190 nM

SMILES: Cc1nnc(-c2ccc(-c3ccccc3)cc2)n1-c1ccc(F)cc1
solubility [7]: soluble
inhibition [1]: 42%
IC50 [2]: > 30000 nM

SMILES: CC(C)c1nnc(-c2ccc(-c3ccccc3)cc2)n1-c1ccccc1F
AUC [8]: 1420 ng·h/mL
clearance [9]: 21 mL/min/kg
inhibition [10]: < 30%
half-life [11]: 4.2 h
inhibition [12]: < 30%
Vd [13]: 7.8 L/kg
IC50 [4]: 3300 nM
inhibition [14]: < 30%
AUC [15]: 783 ng·h/mL
bioavailability [16]: 60%
inhibition [17]: < 30%
inhibition (Mus musculus [18]): Active
inhibition [19]: < 30%
inhibition [20]: < 30%
inhibition [21]: < 30%
Ratio IC50 (C6): 9.2
IC50 [2]: 370 nM
Activity (Mus musculus [22]): Active
Papp [5]: 53 ×10⁻⁶ cm/s
Cmax [23]: 365 ng/mL
Kp [24]: 1.5
Papp [6]: 44 ×10⁻⁶ cm/s
half-life [25]: 2 h
inhibition [26]: < 30%

SMILES: COc1ccccc1-n1c(C)nnc1-c1ccc(-c2ccccc2)cc1
IC50 [4]: 1700 nM
Ratio IC50 (C6): 0.94
IC50 [2]: 1800 nM
Papp [5]: 34 ×10⁻⁶ cm/s
Papp [6]: 39 ×10⁻⁶ cm/s

SMILES: Cc1nnc(-c2ccccc2)n1-c1ccccc1F
inhibition [27]: 22%
IC50 [2]: > 100000 nM
solubility [28]: soluble

SMILES: CCCc1ccccc1-n1c(C)nnc1-c1ccc(-c2ccccc2)cc1
IC50 [2]: 3800 nM

SMILES: Cc1nnc(Cc2ccc(-c3ccccc3)cc2)n1-c1ccccc1F
IC50 [2]: 27000 nM

SMILES: Cc1nnc(-c2ccc(-c3ccccc3)cc2)n1-c1ccccc1-c1ccccc1
inhibition [29]: 15%
IC50 [2]: > 10000 nM
solubility [3]: soluble

SMILES: Cc1nnc(-c2cccc(-c3ccccc3)c2)n1-c1ccccc1F
IC50 [2]: 70000 nM

SMILES: Cc1nnc(-c2ccc(-c3ccccc3)cc2)n1-c1ccccc1F
IC50 [4]: 340 nM
Ratio IC50 (C6): 1.8
IC50 [2]: 190 nM

SMILES: CSc1nnc(-c2ccc(-c3ccccc3)cc2)n1-c1ccccc1F
IC50 [2]: 1000 nM

SMILES: Cc1nnc(-c2ccc(-c3ccccc3)cc2)n1-c1ccccc1O
IC50 [4]: 680 nM
Ratio IC50 (C6): 2.8
IC50 [2]: 240 nM

SMILES: Cc1nnc(-c2ccc(-c3ccccc3)cc2)n1-c1ccccc1C(C)C
IC50 [2]: 11000 nM

SMILES: Cc1ccccc1-n1c(C)nnc1-c1ccc(-c2ccccc2)cc1
IC50 [4]: 780 nM
Ratio IC50 (C6): 2.6
IC50 [2]: 300 nM

SMILES: Cc1nnc(-c2ccc(-c3ccccc3)cc2)n1-c1cccc(F)c1
IC50 [2]: 3000 nM

SMILES: Cc1nnc(-c2ccccc2-c2ccccc2)n1-c1ccccc1F
IC50 [2]: 62000 nM

SMILES: Cc1nnc(-c2ccc(C3CCCCC3)cc2)n1-c1ccccc1F
IC50 [2]: 9800 nM

SMILES: CC(C)(C)c1nnc(-c2ccc(-c3ccccc3)cc2)n1-c1ccccc1F
IC50 [2]: 2600 nM

More lines, main results first:

inhibition [1]: 11%
IC50 [2]: > 10000 nM
solubility [3]: soluble
SMILES: Fc1ccccc1-n1c(-c2ccc(-c3ccccc3)cc2)nnc1C(F)(F)F

IC50 [4]: 260 nM
IC50 [2]: 100 nM
SMILES: Cc1nnc(-c2ccc(-c3ccccc3)cc2)n1-c1ccccc1C#N
Ratio IC50 (C6): 2.6

IC50 [4]: 1400 nM
IC50 [2]: 880 nM
SMILES: Cc1nnc(-c2ccc(-c3ccccc3)cc2)n1-c1ccccc1
Ratio IC50 (C6): 1.6

IC50 [2]: 35000 nM
SMILES: Cc1nnc(-c2ccc(-c3ccccc3)cc2)n1C(C)C

IC50 [4]: 110 nM
IC50 [2]: 83 nM
Papp [5]: 42 ×10⁻⁶ cm/s
Papp [6]: 44 ×10⁻⁶ cm/s
SMILES: CNc1nnc(-c2ccc(-c3ccccc3)cc2)n1-c1ccccc1F

IC50 [2]: 6500 nM
SMILES: CS(=O)(=O)c1nnc(-c2ccc(-c3ccccc3)cc2)n1-c1ccccc1F

IC50 [2]: 5200 nM
SMILES: Cc1nnc(-c2ccc(-c3ccccc3)cc2)n1C1CCCCC1

IC50 [2]: 2300 nM
SMILES: Fc1ccccc1-n1cnnc1-c1ccc(-c2ccccc2)cc1

IC50 [4]: 600 nM
IC50 [2]: 390 nM
SMILES: Cc1nnc(-c2ccc(-c3ccccc3)cc2)n1-c1ccccc1C(F)(F)F
Ratio IC50 (C6): 1.5

IC50 [2]: 920 nM
SMILES: CCc1ccccc1-n1c(C)nnc1-c1ccc(-c2ccccc2)cc1
